In this test the target is T1, Progesterone receptor (Homo sapiens, UniProt P06401).
T1 sequence (P06401 whole entry): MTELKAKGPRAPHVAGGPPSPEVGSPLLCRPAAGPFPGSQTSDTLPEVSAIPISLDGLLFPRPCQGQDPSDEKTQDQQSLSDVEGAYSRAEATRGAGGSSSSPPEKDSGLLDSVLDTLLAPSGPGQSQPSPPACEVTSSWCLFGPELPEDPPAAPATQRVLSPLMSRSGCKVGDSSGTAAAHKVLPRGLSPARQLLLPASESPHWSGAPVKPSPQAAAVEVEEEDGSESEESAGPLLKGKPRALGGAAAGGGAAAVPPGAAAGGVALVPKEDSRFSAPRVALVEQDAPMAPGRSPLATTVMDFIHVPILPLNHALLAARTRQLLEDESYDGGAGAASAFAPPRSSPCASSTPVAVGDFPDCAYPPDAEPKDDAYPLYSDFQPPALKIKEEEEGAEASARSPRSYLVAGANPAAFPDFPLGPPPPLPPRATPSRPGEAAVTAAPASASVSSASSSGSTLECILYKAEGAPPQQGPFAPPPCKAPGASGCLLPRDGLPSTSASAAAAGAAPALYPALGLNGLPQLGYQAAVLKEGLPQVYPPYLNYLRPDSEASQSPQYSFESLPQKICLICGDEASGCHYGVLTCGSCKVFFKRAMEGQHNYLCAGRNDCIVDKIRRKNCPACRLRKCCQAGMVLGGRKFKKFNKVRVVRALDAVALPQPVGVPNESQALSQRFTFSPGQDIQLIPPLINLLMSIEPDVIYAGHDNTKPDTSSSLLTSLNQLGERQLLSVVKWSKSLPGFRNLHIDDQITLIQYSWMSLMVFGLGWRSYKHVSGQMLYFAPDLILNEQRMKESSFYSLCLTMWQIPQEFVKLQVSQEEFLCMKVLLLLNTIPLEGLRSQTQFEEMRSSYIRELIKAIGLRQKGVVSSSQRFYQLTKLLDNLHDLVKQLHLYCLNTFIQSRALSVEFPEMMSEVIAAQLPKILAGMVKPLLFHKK
Kind of test: Binding Assay: Using cytosol from progesterone receptor-expressing insect cells (Hi5), competitive binding to the progesterone receptor was determined from the ability to displace 3H-progesterone as reference substance from the receptor.

Our source for the IC50 values is ChEMBL document CHEMBL3639070, “19-nor-steroid derivatives with a 15Œ±,16Œ±-methylene group and a saturated 17,17-spirolactone ring, use thereof, and medicaments containing said derivatives” (2015).

The molecule `C[C@]12CCC3C4CCC(=O)C=C4[C@@H]4C[C@@H]4C3C1C1CC1[C@@]21CCC(=O)O1` (stereo partly specified) had an IC50 of 16 nM.

In general, IC50 refers to the midpoint of a concentration-inhibition curve. Read a low IC50 as inhibition by little substance.
